pIC50: −log10 of the molar value. Where two headings read alike, the source gives them in different places.
What was measured:
[1] = test system: 60 human cancer cell lines; test: NCI-60 SRB screen, whole panel; type: cell-based; conditions: for activity at 10 µM / LC50 / GI50 / inhibition at 10 µM: Homo sapiens; for activity at 10 µM: 48 h, One Dose Mean Graph, Conc 1.00E-5 Molar, read-out: Mean Growth Percent; for LC50 / Log10 TGI _MID: mean over panel, Units Molar; for LC50: read-out: Log10 LC50 _MID (converted); for GI50: mean over the cell line panel (_MID), Molar, read-out: Mean Log10 GI50 (converted)
[2] = test system: HS 578T; test: NCI-60 SRB screen; type: cell-based; conditions: Homo sapiens, 10^–5 Molar, read-out: Percent growth inhibition
Summary of the method: (§1)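 After a 24 h pre-incubation, the cells received test compound at a single 10^−5 M dose and were incubated a further 48 h. Endpoint was SRB dye binding.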

[3] = test system: MDA-MB-231/ATCC; test: NCI-60 SRB screen; type: cell-based; conditions: Homo sapiens, 10^–5 Molar, read-out: Percent growth inhibition
Summary of the method: (§2)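 Testing used one 10^−5 M dose. Plates were incubated 48 h at 37 °C in 5% CO2 before fixation, staining with 0.4% (w/v) SRB in 1% acetic acid, solubilisation in trizma base and reading at […].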

[4] = test system: NCI/ADR-RES; test: NCI-60 SRB screen; type: cell-based; conditions: Homo sapiens, 10^–5 Molar, read-out: Percent growth inhibition
Summary of the method: as §2

[5] = test system: SF-295; test: NCI-60 SRB screen; type: cell-based; conditions: Homo sapiens; SF-295, 10^–5 Molar; read-out: Percent growth inhibition
Summary of the method: as §2

[6] = test system: TK-10; test: NCI-60 SRB screen; type: cell-based; conditions: Homo sapiens; TK-10, 10^–5 Molar; read-out: Percent growth inhibition
[7] = test system: DU-145; test: NCI-60 SRB screen; type: cell-based; conditions: Homo sapiens; DU-145, 10^–5 Molar; read-out: Percent growth inhibition
[8] = test system: RPMI-8226; test: NCI-60 SRB screen; type: cell-based; conditions: Homo sapiens; RPMI-8226, 10^–5 Molar; read-out: Percent growth inhibition
[9] = test system: HT29; test: NCI-60 SRB screen; type: cell-based; conditions: Homo sapiens, HT-29; HT29, 10^–5 Molar; read-out: Percent growth inhibition
[10] = test system: OVCAR-3; test: NCI-60 SRB screen; type: cell-based; conditions: Homo sapiens; OVCAR-3, 10^–5 Molar; read-out: Percent growth inhibition
[11] = target: T1, topoisomerase IIα (Homo sapiens, UniProt P11388); test: Topoisomerase ELISA kit inhibitory assay; type: biochemical; conditions: four concentrations
T1 construct: purchased MBS2885049
Procedure: Four concentrations were used and IC50 was calculated.
Compound 3a,b,c,e were evaluated for topoisomerase IIα inhibitory activity utilizing the human DNA topoisomerase ELISA kit (MBS2885049) and following the provided procedure: • Standards and the tested compound were dissolved in sample diluent and tenfold serial dilution was achieved. • Biotin-conjugated antibody and avidin conjugated Horseradish Peroxidase (HRP-avidin) were diluted to tenfolds. • 100 µL of each concentration of standard or test compounds were added to each well and incubated at 37 °C for 1 h. • Removal of the liquid in each well was done. • To each well 100 µL of Biotin-conjugated antibody solution was added followed by incubation for 1 h at 37 °C. • The microtiter plate was allowed to aspirate and washed 3 times. • 100 µL of avidin conjugated Horseradish Peroxidase (HRP-avidin) solution was added to each well and incubatation for 1 h at 37 °C was achieved. • The plate was aspirated and washed 5 times. • Addition of 90 µL of 3,3′,5,5′-tetramethylbenzidine (TMB) substrate to each well followed by plate incubated for 30 min at 37 °C and protection from light was done. • 50 µL stop solution was added.

[12] = test system: COLO 205; test: NCI-60 SRB screen; type: cell-based; conditions: Homo sapiens, 48 h; COLO 205, 10^–5 Molar; read-out: Percent growth inhibition
[13] = test system: leukemia SR cells; test: Apoptosis, Annexin-V-FITC/PI
[14] = test system: SK-MEL-2; test: NCI-60 SRB screen; type: cell-based; conditions: Homo sapiens; SK-MEL-2, 10^–5 Molar; read-out: Percent growth inhibition
Summary of the method: as §1

[15] = test system: HL-60(TB); test: NCI-60 SRB screen; type: cell-based; conditions: Homo sapiens, 10^–5 Molar, read-out: Percent growth inhibition
[16] = test system: UACC-257; test: NCI-60 SRB screen; type: cell-based; conditions: Homo sapiens; UACC-257, 10^–5 Molar; read-out: Percent growth inhibition
[17] = single dose 10^–5 M, 60 cell lines, read-out: mean percent growth inhibition

T1 sequence (P11388 whole entry): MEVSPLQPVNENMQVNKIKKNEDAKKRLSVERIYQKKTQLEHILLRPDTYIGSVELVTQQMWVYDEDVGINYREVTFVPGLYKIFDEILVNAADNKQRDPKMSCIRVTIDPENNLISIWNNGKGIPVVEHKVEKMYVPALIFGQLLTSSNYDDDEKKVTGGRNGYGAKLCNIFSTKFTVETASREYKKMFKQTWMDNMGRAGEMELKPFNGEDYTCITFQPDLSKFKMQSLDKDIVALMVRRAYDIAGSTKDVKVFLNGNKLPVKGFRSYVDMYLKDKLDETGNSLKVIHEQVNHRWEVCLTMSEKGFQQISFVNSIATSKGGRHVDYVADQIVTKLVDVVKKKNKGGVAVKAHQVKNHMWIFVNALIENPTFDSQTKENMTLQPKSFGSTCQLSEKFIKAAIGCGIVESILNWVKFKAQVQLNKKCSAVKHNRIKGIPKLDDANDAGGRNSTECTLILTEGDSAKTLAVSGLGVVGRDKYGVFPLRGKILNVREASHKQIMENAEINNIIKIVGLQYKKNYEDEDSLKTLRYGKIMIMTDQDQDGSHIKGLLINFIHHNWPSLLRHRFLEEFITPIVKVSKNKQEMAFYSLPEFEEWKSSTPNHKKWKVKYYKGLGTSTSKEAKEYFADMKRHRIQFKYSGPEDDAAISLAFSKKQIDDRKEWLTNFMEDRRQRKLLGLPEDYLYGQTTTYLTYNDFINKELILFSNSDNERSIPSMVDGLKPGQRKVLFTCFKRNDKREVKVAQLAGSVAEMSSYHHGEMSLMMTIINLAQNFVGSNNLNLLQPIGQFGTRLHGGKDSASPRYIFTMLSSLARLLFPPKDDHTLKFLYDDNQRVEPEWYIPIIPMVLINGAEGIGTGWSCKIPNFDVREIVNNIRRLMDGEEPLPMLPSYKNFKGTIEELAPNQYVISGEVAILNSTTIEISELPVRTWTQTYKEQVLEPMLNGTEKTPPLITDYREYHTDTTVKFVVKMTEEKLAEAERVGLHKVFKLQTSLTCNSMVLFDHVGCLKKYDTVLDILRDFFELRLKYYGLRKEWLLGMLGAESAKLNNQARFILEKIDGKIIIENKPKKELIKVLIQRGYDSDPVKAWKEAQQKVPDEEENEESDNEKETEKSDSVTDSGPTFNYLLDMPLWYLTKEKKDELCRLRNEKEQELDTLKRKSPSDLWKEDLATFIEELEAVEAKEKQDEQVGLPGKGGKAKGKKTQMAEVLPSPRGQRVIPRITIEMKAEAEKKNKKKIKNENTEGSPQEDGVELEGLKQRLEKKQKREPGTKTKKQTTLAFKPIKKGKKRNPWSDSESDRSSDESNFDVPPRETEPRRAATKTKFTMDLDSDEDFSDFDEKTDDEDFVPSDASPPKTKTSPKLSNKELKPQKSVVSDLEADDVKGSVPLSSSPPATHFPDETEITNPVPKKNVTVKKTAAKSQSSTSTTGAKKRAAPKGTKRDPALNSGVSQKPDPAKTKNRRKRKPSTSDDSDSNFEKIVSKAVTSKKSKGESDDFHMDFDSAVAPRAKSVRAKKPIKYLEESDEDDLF

Row | SMILES | activity at 10 µM [1] | inhibition at 10 µM [2] | inhibition at 10 µM [3] | inhibition at 10 µM [4] | inhibition at 10 µM [5] | inhibition at 10 µM [6] | inhibition at 10 µM [7] | LC50 [1] | GI50 [1] | inhibition at 10 µM [1, 17] | Log10 TGI _MID [1] | inhibition at 10 µM [8] | inhibition at 10 µM [9] | inhibition at 10 µM [10] | pIC50 [11] | inhibition at 10 µM [12] | inhibition at 10 µM [14] | inhibition at 10 µM [15] | also measured
1 | CCn1cc(C(=O)O)c(=O)c2cc(F)c(N3CCN(C(=O)c4ccc(Br)cc4)C(C)C3)c(F)c21 (stereo not shown) [Compound 7b, 7-(4-(4-Bromobenzoyl)-3-methylpiperazin-1-yl)-1-ethyl-6,8-difluoro-4-oxo-1,4-dihydroquinoline-3-carboxylic acid] | 98.8% | 4.22% | 13.3% | 9.07% | 6.71% | – | – | – | – | – | – | – | – | – | – | – | – | – | –
2 | CCn1cc(C(=O)NN=Cc2cccs2)c(=O)c2cc(F)c(N3CCNC(C)C3)c(F)c21 (stereo not shown) [Compound 3e, 1-Ethyl-6,8-difluoro-7-(3-methylpiperazin-1-yl)-4-oxo-N'-(thiophen-2-ylmethylene)-1,4-dihydroquinoline-3-carbohydrazide] | 52.6% | 13.9% | 59% | 32.1% | 14.7% | 16.1% | 51.7% | 7240 nM | 1820 nM | > 47% | -5.44 | 137% | 177% | 31.3% | 6.01 | 142% | – | – | late apoptosis elevation vs control [13]: 27.16 folds; Apoptosis %Early ([13]; 3e at 1.90 µM, 24 h): 5.27%; Apoptosis %Late ([13]; 3e at 1.90 µM, 24 h): 18.20%; Apoptosis %Total ([13]; 3e at 1.90 µM, 24 h): 26.19%; Necrosis ([13]; 3e at 1.90 µM, 24 h): 2.72%
3 | CCn1cc(C(=O)O)c(=O)c2cc(F)c(N3CCN(CC(=O)Nc4ccccc4)C(C)C3)c(F)c21 (stereo not shown) [Compound 5a, 1-Ethyl-6,8-difluoro-7-(3-methyl-4-(2-oxo-2-(phenylamino)ethyl)piperazin-1-yl)-4-oxo-1,4-dihydroquinoline-3-carboxylic acid] | 97.2% | 8.88% | 12.9% | 3.34% | 4.71% | – | – | – | – | – | – | – | – | – | – | – | – | – | –
4 | CCn1cc(C(=O)O)c(=O)c2cc(F)c(N3CCN(C(=O)c4ccccc4)C(C)C3)c(F)c21 (stereo not shown) [Compound 7a, 7-(4-Benzoyl-3-methylpiperazin-1-yl)-1-ethyl-6,8-difluoro-4-oxo-1,4-dihydroquinoline-3-carboxylic acid] | 93.5% | 18.1% | 16.6% | 20.4% | 6.9% | 13% | – | – | – | – | – | – | – | 3.69% | – | – | 0.16% | – | –
5 | CCn1cc(C(=O)O)c(=O)c2cc(F)c(N3CCN(C(=O)c4ccc([N+](=O)[O-])cc4)C(C)C3)c(F)c21 (stereo not shown) [Compound 7d, 1-Ethyl-6,8-difluoro-7-(3-methyl-4-(4-nitrobenzoyl)piperazin-1-yl)-4-oxo-1,4-dihydroquinoline-3-carboxylic acid] | 97.3% | 8.17% | 8.63% | 3.34% | 2.82% | – | – | – | – | – | – | – | – | – | – | – | – | 24.7% | inhibition at 10 µM ([1]; prostate and renal cancer cell lines, 10^−5 M, read-out: percent inhibition): 12 to 27.2%
6 | CCn1cc(C(=O)NN=Cc2cccnc2)c(=O)c2cc(F)c(N3CCNC(C)C3)c(F)c21 (stereo not shown) [Compound 3d, 1-Ethyl-6,8-difluoro-7-(3-methylpiperazin-1-yl)-4-oxo-N'-(pyridin-3-ylmethylene)-1,4-dihydroquinoline-3-carbohydrazide] | 53.2% | 57.8% | 64.2% | 2.29% | 15.1% | 29% | 57.5% | – | – | – | – | 13.4% | 56.3% | 59.8% | – | 46.8% | 44.1% | 30.5% | inhibition at 10 µM [16]: 1.56%
7 | CCn1cc(C(=O)O)c(=O)c2cc(F)c(N3CCN(CC(=O)Nc4ccc(Cl)cc4)C(C)C3)c(F)c21 (stereo not shown) [Compound 5b, 7-(4-(2-((4-Chlorophenyl)amino)-2-oxoethyl)-3-methylpiperazin-1-yl)-1-ethyl-6,8-difluoro-4-oxo-1,4-dihydroquinoline-3-carboxylic acid] | 94.6% | 11.2% | 15.7% | 8.06% | 13% | – | – | – | – | – | – | – | – | – | – | – | – | – | –
8 | CCn1cc(C(=O)O)c(=O)c2cc(F)c(N3CCN(C(=O)c4ccc(Cl)cc4)C(C)C3)c(F)c21 (stereo not shown) [Compound 7c, 7-(4-(4-Chlorobenzoyl)-3-methylpiperazin-1-yl)-1-ethyl-6,8-difluoro-4-oxo-1,4-dihydroquinoline-3-carboxylic acid] | 97.7% | 5.57% | 14.3% | 13.8% | 3.13% | – | – | – | – | – | – | – | – | – | – | – | – | – | –
9 | CCn1cc(C(=O)NN=Cc2ccccc2)c(=O)c2cc(F)c(N3CCNC(C)C3)c(F)c21 (stereo not shown) [Compound 3a, N'-Benzylidene-1-ethyl-6,8-difluoro-7-(3-methylpiperazin-1-yl)-4-oxo-1,4-dihydroquinoline-3-carbohydrazide] | -2.19% | 30.3% | 170% | 44% | 91.1% | 17.3% | 188% | 5890 nM | 1700 nM | > 47% | -5.49 | 142% | 192% | 175% | 5.76 | 174% | 6.57% | 81.9% | inhibition at 10 µM [16]: 60.4%
10 | CCn1cc(C(=O)NN=Cc2cccc(F)c2)c(=O)c2cc(F)c(N3CCNC(C)C3)c(F)c21 (stereo not shown) [Compound 3b, 1-Ethyl-6,8-difluoro-N′-(3-fluorobenzylidene)-7-(3-methylpiperazin-1-yl)-4-oxo-1,4-dihydroquinoline-3-carbohydrazide] | 11.2% | 18.7% | 150% | 21.6% | 24.3% | – | 188% | 6610 nM | 1700 nM | > 47% | -5.47 | 142% | 187% | 183% | 5.62 | 82.5% | – | 34.5% | inhibition at 10 µM [16]: 11%
11 | CCn1cc(C(=O)NN=Cc2ccc(Br)cc2)c(=O)c2cc(F)c(N3CCNC(C)C3)c(F)c21 (stereo not shown) [Compound 3c, N'-(4-Bromobenzylidene)-1-ethyl-6,8-difluoro-7-(3-methylpiperazin-1-yl)-4-oxo-1,4-dihydroquinoline-3-carbohydrazide] | 51.9% | 26.9% | 45.2% | 16.7% | 25.5% | 0.41% | 68.6% | 7240 nM | 1740 nM | > 47% | -5.46 | 115% | 132% | 47.1% | 5.77 | 67.9% | 2.32% | 51.3% | –

From PMC10940605, “Design, synthesis and in vitro anticancer activity of some new lomefloxacin derivatives” (Scientific Reports, 2024)
